Data published in US8664257B2, “Oxygen-substituted 3-heteroaroylamino-propionic acid derivatives and their use as pharmaceuticals” (Sanofi, priority 2010, dated 2014).

target: T1, Recombinant human cathepsin A (Homo sapiens, UniProt P10619); experiment: Cathepsin A inhibitory activity; assay type: biochemical; conditions: pharmacological test "Cathepsin A inhibitory activity"; IC50 given as class A/B/C; read-out: Activity (2): Cathepsin A inhibitory activity, IC50 class
T1 construct: Recombinant human cathepsin A (residues 29-480, with a C-terminal 10-His tag); 10-His (C); purchased R&D Systems 1049-SE
T1 sequence (P10619 29-312 limits assumed): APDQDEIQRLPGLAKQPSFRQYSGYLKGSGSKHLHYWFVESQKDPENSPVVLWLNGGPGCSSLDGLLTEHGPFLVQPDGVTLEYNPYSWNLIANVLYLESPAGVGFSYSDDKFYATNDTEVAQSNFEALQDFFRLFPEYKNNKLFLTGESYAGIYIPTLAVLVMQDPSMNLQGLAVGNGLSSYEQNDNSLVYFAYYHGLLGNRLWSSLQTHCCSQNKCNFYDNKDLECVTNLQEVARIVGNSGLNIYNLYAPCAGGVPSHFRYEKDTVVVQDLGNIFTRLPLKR
T1 sequence (P10619 327-480 limits assumed): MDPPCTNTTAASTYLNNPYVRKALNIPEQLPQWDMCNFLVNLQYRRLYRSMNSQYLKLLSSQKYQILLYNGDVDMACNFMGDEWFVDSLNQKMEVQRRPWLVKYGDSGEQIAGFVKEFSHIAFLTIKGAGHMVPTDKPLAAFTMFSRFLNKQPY
Method in brief: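 Human cathepsin A (res. 29-480, C-His10) pre-activated with cathepsin L (MES pH 6.0, DTT, 15 min, 37 °C; quenched with 10 μM E-64). Enzyme (833 ng/ml) preincubated 15 min RT with compound in MES pH 5.5/DTT, then 2 μM Bodipy FL-bradykinin for 15 min RT. Capillary electrophoresis product/substrate peak areas; IC50 from % inhibition.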

Row | SMILES | IC50 [µM]
1 | O=C(O)CC(NC(=O)c1cc(O)n(-c2ccncc2)n1)c1ccc(-c2ccccc2)cc1 (centres unmarked) [Example 151] | 1 to 30
2 | O=C(O)C[C@H](NC(=O)c1cc(O)n(-c2ccc(F)cc2F)n1)c1ccc(Cl)cc1 [Example 200] | 0.1 to 1
3 | O=C(O)C[C@H](NC(=O)c1cc(O)n(-c2cccc(Cl)c2)n1)c1ccccc1Br [Example 251] | 0.1 to 1
4 | COc1ccc(C(CC(=O)O)NC(=O)c2cc(O)n(-c3ccccc3Cl)n2)c(Cl)c1 (centres unmarked) [Example 210] | 0.1 to 1
5 | O=C(O)CC(NC(=O)c1cc(O)n(-c2ccccc2)n1)c1cccc2c1OCO2 (centres unmarked) [Example 158] | 0.1 to 1
6 | O=C(O)C[C@H](NC(=O)c1cc(O)n(-c2ccc(F)cc2F)n1)c1ccccc1C(F)(F)F [Example 198] | 0.1 to 1
7 | Cc1ccc(C(CC(=O)O)NC(=O)c2cc(O)n(-c3ccc(F)cc3F)n2)c(C)c1 (centres unmarked) [Example 195] | 0.1 to 1

Second part, the compound after the results:

Row | IC50 [µM] | SMILES
8 | 0.1 to 1 | O=C(O)CC(NC(=O)c1cc(O)n(-c2ccccc2F)n1)c1ccc(-c2cccc(F)c2)cc1 (centres unmarked) [Example 242]
9 | 0.1 to 1 | COc1ccc(C(CC(=O)O)NC(=O)c2cc(O)n(-c3ccccc3)n2)c(Cl)c1 (centres unmarked) [Example 162]
10 | 0.1 to 1 | O=C(O)C[C@H](NC(=O)c1cc(O)n(-c2ccccc2Cl)n1)c1ccccc1Br [Example 204]

same assay, conditions: read-out: Activity (2): Cathepsin A inhibitory activity (IC50 class)

Row | SMILES | IC50 [µM]
11 | Cc1ccccc1[C@H](CC(=O)O)NC(=O)c1cc(O)n(-c2cc(F)ccc2F)n1 [Example 599] | < 0.1
12 | O=C(O)CC(NC(=O)c1cc(O)n(-c2ccccc2Cl)n1)c1ccc(-n2cccn2)cc1 (centres unmarked) [Example 580] | 0.1 to 1
13 | Cc1ccccc1[C@H](CC(=O)O)NC(=O)c1cc(OC(=O)N(C)c2ccccc2)n(-c2ccccc2F)n1 [Example 620] | < 0.1
14 | Cc1ccccc1[C@H](CC(=O)O)NC(=O)c1cc(OCC(C)(O)C(C)C)n(-c2ccccc2F)n1 (stereo partly drawn) [Example 770, (S)-3-{[1-(2-Fluoro-phenyl)-5-(2-hydroxy-2,3-dimethyl-butoxy)-1H-pyrazole-3-carbonyl]-amino}-3-o-tolyl-propionic acid] | < 0.1
15 | CC(C)(C)[C@H](O)COc1cc(C(=O)N[C@@H](CC(=O)O)c2ccc(Cl)cc2Cl)nn1-c1ccccc1F [Example 754, (S)-3-(2,4-Dichloro-phenyl)-3-{[1-(2-fluoro-phenyl)-5-((S)-2-hydroxy-3,3-dimethyl-butoxy)-1H-pyrazole-3-carbonyl]-amino}-propionic acid] | < 0.1
16 | O=C(O)CC(NC(=O)c1cc(O)n(-c2ccccc2)n1)c1ccc(-c2ccc(C(F)(F)F)cc2)cc1 (centres unmarked) [Example 579] | 1 to 30
17 | Cc1ccc(C(CC(=O)O)NC(=O)c2cc(OCC3CC3)n(-c3ccccc3F)n2)c(C)c1 (centres unmarked) [Example 686] | < 0.1
18 | CCOc1cc(C(=O)N[C@@H](CC(=O)O)c2cccc(OC)c2)nn1-c1ccccc1Cl [Example 731] | 0.1 to 1
19 | COc1ccc(C(F)(F)F)cc1C(CC(=O)O)NC(=O)c1cc(O)n(-c2ccccc2F)n1 (centres unmarked) [Example 554, 3-{[1-(2-Fluoro-phenyl)-5-hydroxy-1H-pyrazole-3-carbonyl]-amino}-3-(2-methoxy-5-trifluoromethyl-phenyl)-propionic acid] | 1 to 30
20 | COCCOc1cc(C(=O)N[C@@H](CC(=O)O)c2ccccc2C)nn1-c1ccccc1F [Example 617] | < 0.1

Second part, the compound after the results:

Row | IC50 [µM] | SMILES
21 | 0.1 to 1 | NS(=O)(=O)c1cccc(-n2nc(C(=O)NC(CC(=O)O)c3ccc(-c4ccc(F)cc4)cc3)cc2O)c1 (centres unmarked) [Example 606]
22 | < 0.1 | O=C(O)C[C@H](NC(=O)c1cc(OCC2CC2)n(-c2ccccc2F)n1)c1ccccc1 [Example 685]
23 | < 0.1 | Cc1ccccc1[C@H](CC(=O)O)NC(=O)c1cc(OCC(C)O)n(-c2ccccc2F)n1 (some centres unmarked) [Example 749]
24 | < 0.1 | Cc1ccccc1[C@H](CC(=O)O)NC(=O)c1cc(OCCc2ccccc2)n(-c2ccccc2F)n1 [Example 625]
25 | 1 to 30 | O=C(O)CC(NC(=O)c1cc(O)n(-c2cc(F)cc(F)c2)n1)c1ccc(-c2ccc(F)cc2)cc1 (centres unmarked) [Example 587]
26 | 0.1 to 1 | Cc1ccccc1[C@H](CC(=O)O)NC(=O)c1cc(O)n(-c2cc(F)cc(F)c2)n1 [Example 586]
27 | 1 to 30 | O=C(O)CC(NC(=O)c1cc(O)n(-c2ccccc2Cl)n1)c1ccc(N2CCCC2)cc1 (centres unmarked) [Example 568, 3-{[1-(2-Chloro-phenyl)-5-hydroxy-1H-pyrazole-3-carbonyl]-amino}-3-(4-pyrrolidin-1-yl-phenyl)-propionic acid]

same assay, conditions: read-out: Activity (2): Cathepsin A inhibitory activity, IC50 class

Row | SMILES | IC50 [µM]
28 | O=C(O)CC(NC(=O)c1cc(O)n(-c2cccc(F)c2)n1)c1cccc(Cl)c1 (centres unmarked) [Example 301] | 0.1 to 1
29 | Cc1cccc(C(CC(=O)O)NC(=O)c2cc(O)n(-c3ccc(Cl)cc3)n2)c1C (centres unmarked) [Example 287] | 0.1 to 1
30 | O=C(O)C[C@H](NC(=O)c1cc(O)n(-c2ccc(F)cc2)n1)c1ccccc1Br [Example 339] | 0.1 to 1
31 | O=C(O)CC(NC(=O)c1cc(O)n(-c2ccc(F)cc2)n1)c1ccc(Cl)cc1F (centres unmarked) [Example 357] | 0.1 to 1
32 | Cc1cccc(C(CC(=O)O)NC(=O)c2cc(O)n(-c3cc(C)ccc3C)n2)c1 (centres unmarked) [Example 51] | 1 to 30
33 | CC(C)[C@](C)(O)COc1cc(C(=O)NC(CC(=O)O)Cc2ccccc2)nn1-c1ccccc1F (stereo partly drawn) [Example 826, 3-{[1-(2-Fluoro-phenyl)-5-((S)-2-hydroxy-2,3-dimethyl-butoxy)-1H-pyrazole-3-carbonyl]-amino}-4-phenyl-butyric acid] | 0.1 to 1
34 | CCCCC(CC(=O)O)NC(=O)c1cc(O)n(-c2cc(C)ccc2C)n1 (centres unmarked) [Example 33] | 1 to 30

The remaining lines, values ahead:

Row | IC50 [µM] | SMILES
35 | 1 to 30 | O=C(O)CC(NC(=O)c1cc(O)n(-c2ccc(Cl)cc2)n1)c1ccc(Oc2ccccc2)cc1 (centres unmarked) [Example 294]
36 | 0.1 to 1 | COc1ccccc1[C@H](CC(=O)O)NC(=O)c1cc(O)n(-c2ccccc2F)n1 [Example 122]
37 | 1 to 30 | O=C(O)C[C@H](NC(=O)c1cc(O)n(-c2ccc(F)cc2)n1)c1cccnc1 [Example 372]
38 | 0.1 to 1 | COc1ccc([C@H](CC(=O)O)NC(=O)c2cc(O)n(-c3ccccc3F)n2)cn1 [Example 136]

same assay, conditions: recombinant human cathepsin A 833 ng/ml, Bodipy FL-labeled bradykinin 2 μM, pH 5.5; read-out: CATH-A IC50

Row | SMILES | IC50 [µM]
39 | COc1ccc(F)cc1C(CC(=O)O)NC(=O)c1cc(O)n(-c2ccc(F)cc2)n1 (centres unmarked) [Example 525, 3-(5-Fluoro-2-methoxy-phenyl)-3-{[1-(4-fluoro-phenyl)-5-hydroxy-1H-pyrazole-3-carbonyl]-amino}-propionic acid] | 1.51
40 | O=C(O)CC(NC(=O)c1cc(O)n(-c2cccc(Cl)c2)n1)c1cc(F)ccc1Cl (centres unmarked) [Example 509, 3-(2-Chloro-5-fluoro-phenyl)-3-{[1-(3-chloro-phenyl)-5-hydroxy-1H-pyrazole-3-carbonyl]-amino}-propionic acid] | 0.1
41 | COc1ccc(C(F)(F)F)cc1C(CC(=O)O)NC(=O)c1cc(O)n(-c2ccccc2F)n1 (centres unmarked) [Example 554, 3-{[1-(2-Fluoro-phenyl)-5-hydroxy-1H-pyrazole-3-carbonyl]-amino}-3-(2-methoxy-5-trifluoromethyl-phenyl)-propionic acid] | 1.84

Results, then the compound that gave them:

Row | IC50 [µM] | SMILES
42 | 0.175 | Cc1ccc(F)cc1C(CC(=O)O)NC(=O)c1cc(O)n(-c2ccc(F)cc2)n1 (centres unmarked) [Example 492, 3-(5-Fluoro-2-methyl-phenyl)-3-{[1-(4-fluoro-phenyl)-5-hydroxy-1H-pyrazole-3-carbonyl]-amino}-propionic acid]
43 | 0.884 | CN(C)c1ccc(C(CC(=O)O)NC(=O)c2cc(O)n(-c3ccc(F)cc3F)n2)c(Cl)c1 (centres unmarked) [Example 448, 3-(2-Chloro-4-dimethylamino-phenyl)-3-{[1-(2,4-difluoro-phenyl)-5-hydroxy-1H-pyrazole-3-carbonyl]-amino}-propionic acid]
44 | 2.35 | O=C(O)CC(NC(=O)c1cc(O)n(-c2ccccc2Cl)n1)c1ccc(N2CCCC2)cc1 (centres unmarked) [Example 568, 3-{[1-(2-Chloro-phenyl)-5-hydroxy-1H-pyrazole-3-carbonyl]-amino}-3-(4-pyrrolidin-1-yl-phenyl)-propionic acid]
45 | 0.213 | O=C(O)CC(NC(=O)c1cc(O)n(-c2ccccc2)n1)c1cc(F)ccc1Cl (centres unmarked) [Example 495, 3-(2-Chloro-5-fluoro-phenyl)-3-[(5-hydroxy-1-phenyl-1H-pyrazole-3-carbonyl)-amino]-propionic acid]

same assay, conditions: recombinant human cathepsin A; read-out: Activity (2): Cathepsin A inhibitory activity, IC50 class

Row | SMILES | IC50 [µM]
46 | COc1ccc(F)cc1C(CC(=O)O)NC(=O)c1cc(O)n(-c2ccc(F)cc2)n1 (centres unmarked) [Example 525, 3-(5-Fluoro-2-methoxy-phenyl)-3-{[1-(4-fluoro-phenyl)-5-hydroxy-1H-pyrazole-3-carbonyl]-amino}-propionic acid] | 1 to 30
47 | COc1cc(C(=O)N[C@@H](CC(=O)N[C@@H](C)C(C)(C)C)c2ccccc2C)nn1-c1ccccc1F [Example 920, 1-(2-Fluoro-phenyl)-5-methoxy-1H-pyrazole-3-carboxylic acid [(S)-1-o-tolyl-2-((S)-1,2,2-trimethyl-propylcarbamoyl)-ethyl]-amide] | 1 to 30
48 | COCCNC(=O)C[C@H](NC(=O)c1cc(OC)n(-c2ccccc2F)n1)c1ccccc1C [Example 935, 1-(2-Fluoro-phenyl)-5-methoxy-1H-pyrazole-3-carboxylic acid [(S)-2-(2-methoxy-ethylcarbamoyl)-1-o-tolyl-ethyl]-amide] | < 0.1
49 | O=C(O)CC(NC(=O)c1cc(O)n(-c2cccc(Cl)c2)n1)c1cc(F)ccc1Cl (centres unmarked) [Example 509, 3-(2-Chloro-5-fluoro-phenyl)-3-{[1-(3-chloro-phenyl)-5-hydroxy-1H-pyrazole-3-carbonyl]-amino}-propionic acid] | 0.1 to 1
50 | O=C(O)CC(NC(=O)c1cc(O)n(-c2ccccc2F)n1)c1ccc(Cl)c(Cl)c1 (centres unmarked) [Example 407] | 0.1 to 1
51 | Cc1ccccc1-n1nc(C(=O)NC(CC(=O)O)c2ccc(-c3ccc(F)cc3)cc2)cc1O (centres unmarked) [Example 536] | < 0.1

Continued, values first:

Row | IC50 [µM] | SMILES
52 | 0.1 to 1 | Cc1ccc(F)cc1C(CC(=O)O)NC(=O)c1cc(O)n(-c2ccc(F)cc2)n1 (centres unmarked) [Example 492, 3-(5-Fluoro-2-methyl-phenyl)-3-{[1-(4-fluoro-phenyl)-5-hydroxy-1H-pyrazole-3-carbonyl]-amino}-propionic acid]
53 | 0.1 to 1 | O=C(O)CC(NC(=O)c1cc(O)n(-c2ccccc2F)n1)c1cc(F)ccc1F (centres unmarked) [Example 517]
54 | 0.1 to 1 | CN(C)c1ccc(C(CC(=O)O)NC(=O)c2cc(O)n(-c3ccc(F)cc3F)n2)c(Cl)c1 (centres unmarked) [Example 448, 3-(2-Chloro-4-dimethylamino-phenyl)-3-{[1-(2,4-difluoro-phenyl)-5-hydroxy-1H-pyrazole-3-carbonyl]-amino}-propionic acid]
55 | 0.1 to 1 | O=C(O)CC(NC(=O)c1cc(O)n(-c2ccccc2)n1)c1cc(F)ccc1Cl (centres unmarked) [Example 495, 3-(2-Chloro-5-fluoro-phenyl)-3-[(5-hydroxy-1-phenyl-1H-pyrazole-3-carbonyl)-amino]-propionic acid]
56 | 1 to 30 | CN(C)c1ccc(C(CC(=O)O)NC(=O)c2cc(O)n(-c3ccccc3Cl)n2)c(Cl)c1 (centres unmarked) [Example 456]
